The values that follow come from US20180085356A1, “METHOD OF TREATING DISEASE CHARACTERISED BY PROTEIN AGGREGATE DEPOSITION IN NEURONAL CELLS” (CHRONOS THERAPEUTICS LIMITED, priority 2013, published 2018).

Assay [1] deals with C. elegans expressing mutant human SOD-1 (127X) in the body wall muscle. As to the kind of experiment: C. elegans lifespan assay, mutant SOD-1 strain. In kind it is in vivo, Caenorhabditis elegans. As to the method: (§1) Tacrolimus was tested in a number of disease models using the nematode worm, Caenorhabditis elegans, in which aggregate-prone proteins associated with neurodegenerative diseases are expressed in certain cell types. The effect of tacrolimus was determined by measuring the lifespan of worms in the presence and absence of tacrolimus, using the following general methodology. All of the worms tested using these assays also contained, in addition to the transgene expressing the disease-related protein, a mutation in the bus-5 gene which confers drug-sensitivity.
C. elegans cultures were synchronised by incubating an asynchronous culture in basic sodium hypochlorite solution to kill everything but the bleach-resistant mature eggs. […] From this point on, each ageing population was inspected at regular intervals (e.g. daily) and viability assessed by counting the number of dead worms.
(§2) The cumulative number of dead worms for each population was used to generate a survival/viability plot to determine chronological lifespan (CLS). Survival was analysed using the Kaplan-Meier log-rank survival analysis method, using the Online Application for Survival (OASIS; see http://sbi.postech.ac.kr/oasis). […]
The effect of tacrolimus on C. elegans expressing wild-type or mutant human SOD-1 in the body wall muscle was determined. […]

Assay [2] concerns C. elegans expressing human alpha-synuclein in the body wall muscle. Briefly: C. elegans lifespan assay, alpha-synuclein strain. It counts as in vivo, Caenorhabditis elegans. As to conditions: p<0.05 DMSO vs. Tacrolimus. As to the method:
as §1
(§3) C. elegans cultures were synchronised by incubating an asynchronous culture in basic sodium hypochlorite solution to kill everything but the bleach-resistant mature eggs. The eggs were added on to agar plates and then allowed to hatch and develop in the presence of the test compound (or vehicle) and bacterial food source. […] From this point on, each ageing population was inspected at regular intervals (e.g. daily) and viability assessed by counting the number of dead worms.
as §2

In assay [3] the test system is C. elegans expressing 35 polyglutamine tract fused to YFP (Q35) in the body wall muscle. Briefly: C. elegans lifespan assay, polyglutamine Q35 strain. In kind it is in vivo, Caenorhabditis elegans. To be noted: p<0.05 vs. Q35 DMSO. On the procedure: as §1, §3, §2
In assay [4] the test system is C. elegans expressing YFP alone (Q0) in the body wall muscle. As to the kind of experiment: C. elegans lifespan assay, YFP alone (Q0) strain. In kind it is in vivo, Caenorhabditis elegans. As to conditions: p<0.05 vs. Q0 DMSO. As to the method:
as §1, §3, §2

The subject of the next assay is caspase-3. As to the kind of experiment: Motor neuron culture with Aβ1-42 insult: caspase-3 induction. In kind it is cell-based, rat. To be noted: all 3 concentrations, greatest effect at 100 nM; control increased by 91%. On the procedure: Primary motor neuron (MN) cultures generated from rat spinal cord were treated with 20 μM amyloid beta 1-42 peptide (Aβ1-42). This insult causes an acute increase in TDP-43 levels in the cells and serves as a model for the TDP-43 mislocalisation, aggregation and toxicity observed in the motor neurons of ALS patients (reviewed in Callizot et al, poster “Amyloid peptide and cytoplasmic TDP-43 accumulation in pathogenesis of ALS: an in vitro study”, http://www.neuro-sys.fr/IMG/pdf/poster_adpd2017_tdp43.pdf). This model was used to determine the effect of tacrolimus on TDP-43 toxicity in motor neurons.
A separate group of cells was incubated with a) mouse monoclonal anti-microtubule-associated-protein 2 (MAP-2) antibody, and b) rabbit polyclonal anti-caspase-3 antibody. This group was used to determine the number of caspase-3-positive MN, i.e. the number of overlapping MAP-2 and caspase-3-positive cells.

The next assay has as its system IL-6. As to the kind of experiment: Microglial inflammatory cytokine production by qPCR (LPS challenge). It counts as cell-based, rat. To be noted: 100 ng/ml LPS overnight. As to the method:
To investigate the effect of tacrolimus on microglial function, rat microglia were isolated as follows. A primary glial co-culture was isolated from P2 Sprague Dawley rat pups. The cells were cultured until confluency and then the microglia were isolated from the confluent glial cells through mechanical shaking. The isolated microglial cells were then subjected to inflammatory challenge by overnight exposure to 100 ng/ml lipopolysaccharide (LPS), in the presence or absence of tacrolimus. Glial cell activity was monitored by determining cell viability (Cell Counting Kit-8), the presence of reactive oxygen species (by quantitative fluorescence measurement in the supernatant/cell lysate), microvesicle shedding (by monitoring vesicle formation in cells loaded with Calcein-AM and then challenged with 1 mM ATP) and inflammatory cytokine production (by qPCR).
(In general: Quantitative PCR measures a nucleic acid by following its amplification.)

In a further assay the test system is ALS. As to conditions: Pong et al., Current Drug Targets 2003; cited from earlier work.

On to `C=CC[C@@H]1/C=C(\C)C[C@H](C)C[C@H](OC)[C@H]2O[C@@](O)(C(=O)C(=O)N3CCCC[C@H]3C(=O)O[C@H](/C(C)=C/[C@@H]3CC[C@@H](O)[C@H](OC)C3)[C@H](C)[C@@H](O)CC1=O)[C@H](C)C[C@@H]2OC` [tacrolimus, Tacrolimus], for which the “increase in lifespan when bec-1 knocked down by RNAi” value in assay [1] (bec-1 RNAi, p>0.05 vs. bec-1 RNAi DMSO) is “virtually abolished”. Further, the lifespan result in assay [1] (p<0.05 DMSO vs. Tacrolimus) is listed as “significant increase in lifespan”; in assay [2], “significantly increasing the lifespan”; in assay [3] it was “significantly increases lifespan”; in assay [4], “significantly increases lifespan”. For the same compound, the “caspase-3 levels in response to Aβ1-42 insult” value in the assay with caspase-3 was “increase was less”. In addition, the “LPS induction of IL-6 expression” value with IL-6 was “significantly reduced”. Besides, the “efficacy in the treatment of ALS” value in the assay with ALS is on record as “ineffective”.
